Measured values from US20250243171A1, “QUINAZOLINE COMPOUNDS FOR TREATMENT OF DISEASE” (Arthrosi Therapeutics, Inc., priority 2021, published 2025).
pEC50: −log10 of the molar value.

Legend:
Assay in all cases: EC50 assay: Ba/F3 stable cell proliferation (CCK-8, 72 h)
Assay type in all cases: cell-based
[1] = biological target: T1, Ba/F3 stable cells (Homo sapiens, UniProt P00533, DUP767-769, cells depend on it); details: Ba/F3-EGFR V769-D770insASV cells
T1 construct: EC50 Ba/F3-EGFR V769-D770insASV; other: Ba/F3-EGFR V769-D770insASV cells, 72 h, CCK-8
How it was run: (§1)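 Ba/F3 stable cells were seeded at 4,000 cells/90 μL/well in 96-well plates and held 2 h at 37° C. in 5% CO2, then given 10 μL of serially titrated compound (0.1% DMSO final). After 72 h at 37° C., CCK-8 reagent was added for 4 hours and absorbance read at 450 nm to derive EC50.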

[2] = biological target: T2, Ba/F3 stable cells (Homo sapiens, UniProt P00533, DUP768-770, cells depend on it); details: Ba/F3-EGFR D770-N771insSVD cells
T2 construct: EC50 Ba/F3-EGFR D770-N771insSVD; other: Ba/F3-EGFR D770-N771insSVD cells, 72 h, CCK-8
How it was run: as §1

[3] = biological target: T3, Ba/F3 stable cells (Homo sapiens, UniProt P00533, INS763FQEA, cells depend on it); details: Ba/F3-EGFR A763-Y764insFQEA cells
T3 construct: EC50 Ba/F3-EGFR A763-Y764insFQEA; other: Ba/F3-EGFR A763-Y764insFQEA cells, 72 h, CCK-8
How it was run: as §1

[4] = biological target: T4, Ba/F3 stable cells (Homo sapiens, UniProt P04626, DUP772-775, cells depend on it); details: Ba/F3-HER2 A775-G776insYVMA cells
T4 construct: EC50 Ba/F3-HER2 A775-G776insYVMA; other: Ba/F3-HER2 A775-G776insYVMA cells, 72 h, CCK-8
How it was run: as §1

[5] = biological target: T5, Ba/F3 stable cells (Homo sapiens, UniProt P00533, DUP771-773, cells depend on it); details: Ba/F3-EGFR H773-V774insNPH cells
T5 construct: EC50 Ba/F3-EGFR H773-V774insNPH; other: Ba/F3-EGFR H773-V774insNPH cells, 72 h, CCK-8
How it was run: as §1

[6] = biological target: T6, Ba/F3 stable cells (Homo sapiens, UniProt P00533, T790M/L858R, cells depend on it); details: Ba/F3-EGFR L858R-T790M cells
T6 construct: EC50 Ba/F3-EGFR L858R-T790M; other: Ba/F3-EGFR L858R-T790M cells, 72 h, CCK-8
How it was run: as §1

T3 sequence (P00533 with tags, fused parts or gaps INS763FQEA): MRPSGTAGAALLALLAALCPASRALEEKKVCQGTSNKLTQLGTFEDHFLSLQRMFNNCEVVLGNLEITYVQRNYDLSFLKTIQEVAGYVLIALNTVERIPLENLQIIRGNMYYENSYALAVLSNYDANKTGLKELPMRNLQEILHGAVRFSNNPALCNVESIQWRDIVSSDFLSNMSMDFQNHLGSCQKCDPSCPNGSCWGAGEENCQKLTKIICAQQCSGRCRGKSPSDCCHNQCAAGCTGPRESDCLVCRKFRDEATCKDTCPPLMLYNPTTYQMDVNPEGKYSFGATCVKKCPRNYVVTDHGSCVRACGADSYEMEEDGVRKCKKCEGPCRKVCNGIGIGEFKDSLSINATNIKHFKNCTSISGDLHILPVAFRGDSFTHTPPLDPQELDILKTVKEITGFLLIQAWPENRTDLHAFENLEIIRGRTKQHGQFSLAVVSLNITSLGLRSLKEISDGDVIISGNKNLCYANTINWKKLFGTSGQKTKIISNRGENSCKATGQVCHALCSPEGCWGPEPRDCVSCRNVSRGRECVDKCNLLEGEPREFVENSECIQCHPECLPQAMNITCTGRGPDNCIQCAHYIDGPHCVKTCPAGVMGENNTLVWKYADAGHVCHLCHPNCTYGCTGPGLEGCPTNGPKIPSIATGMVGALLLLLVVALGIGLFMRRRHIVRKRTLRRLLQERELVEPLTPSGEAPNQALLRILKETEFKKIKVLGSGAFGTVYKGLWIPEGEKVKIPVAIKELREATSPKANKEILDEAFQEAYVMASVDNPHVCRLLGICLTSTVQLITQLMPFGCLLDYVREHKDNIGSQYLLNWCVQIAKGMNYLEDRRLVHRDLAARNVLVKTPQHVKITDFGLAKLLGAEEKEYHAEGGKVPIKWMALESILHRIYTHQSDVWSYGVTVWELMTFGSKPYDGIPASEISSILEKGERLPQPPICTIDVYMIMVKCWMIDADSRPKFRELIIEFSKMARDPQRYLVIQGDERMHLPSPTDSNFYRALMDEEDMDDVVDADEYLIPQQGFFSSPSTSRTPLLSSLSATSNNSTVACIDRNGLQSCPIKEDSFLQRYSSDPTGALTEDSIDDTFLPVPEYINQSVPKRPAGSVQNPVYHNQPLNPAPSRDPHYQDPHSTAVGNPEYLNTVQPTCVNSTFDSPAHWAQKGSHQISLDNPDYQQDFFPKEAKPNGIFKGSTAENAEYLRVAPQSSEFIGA
T1 sequence (P00533 with tags, fused parts or gaps DUP767-769): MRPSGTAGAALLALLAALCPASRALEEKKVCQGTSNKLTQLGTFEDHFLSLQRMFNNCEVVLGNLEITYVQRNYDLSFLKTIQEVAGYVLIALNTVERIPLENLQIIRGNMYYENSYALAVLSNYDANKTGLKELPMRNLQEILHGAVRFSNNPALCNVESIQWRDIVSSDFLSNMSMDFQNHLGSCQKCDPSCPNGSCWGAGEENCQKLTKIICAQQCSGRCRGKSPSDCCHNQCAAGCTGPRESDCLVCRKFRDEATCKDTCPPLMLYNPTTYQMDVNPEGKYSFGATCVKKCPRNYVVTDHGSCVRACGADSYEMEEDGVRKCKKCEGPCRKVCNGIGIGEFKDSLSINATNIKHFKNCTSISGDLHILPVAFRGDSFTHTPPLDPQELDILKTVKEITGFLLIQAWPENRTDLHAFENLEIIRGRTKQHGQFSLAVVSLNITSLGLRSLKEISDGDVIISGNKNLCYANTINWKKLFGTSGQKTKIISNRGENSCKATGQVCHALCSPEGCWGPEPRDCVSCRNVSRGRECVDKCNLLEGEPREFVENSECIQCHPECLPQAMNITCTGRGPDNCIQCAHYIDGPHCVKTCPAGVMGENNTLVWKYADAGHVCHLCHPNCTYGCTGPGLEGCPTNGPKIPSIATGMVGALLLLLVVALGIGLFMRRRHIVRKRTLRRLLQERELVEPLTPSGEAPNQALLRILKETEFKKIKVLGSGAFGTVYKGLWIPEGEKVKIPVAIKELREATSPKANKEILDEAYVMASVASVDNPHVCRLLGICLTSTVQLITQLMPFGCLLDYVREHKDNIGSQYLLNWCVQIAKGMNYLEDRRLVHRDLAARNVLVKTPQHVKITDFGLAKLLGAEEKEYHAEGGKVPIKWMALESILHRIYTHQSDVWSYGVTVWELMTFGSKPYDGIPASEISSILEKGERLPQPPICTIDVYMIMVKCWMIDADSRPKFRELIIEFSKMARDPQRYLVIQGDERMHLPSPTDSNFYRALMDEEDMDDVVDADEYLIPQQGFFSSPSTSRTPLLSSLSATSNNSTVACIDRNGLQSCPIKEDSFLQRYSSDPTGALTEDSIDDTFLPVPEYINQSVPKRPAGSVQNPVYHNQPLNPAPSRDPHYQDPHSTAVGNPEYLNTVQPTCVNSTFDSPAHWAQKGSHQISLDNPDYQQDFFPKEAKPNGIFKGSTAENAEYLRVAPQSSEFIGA
T6 sequence (P00533 whole entry T790M/L858R): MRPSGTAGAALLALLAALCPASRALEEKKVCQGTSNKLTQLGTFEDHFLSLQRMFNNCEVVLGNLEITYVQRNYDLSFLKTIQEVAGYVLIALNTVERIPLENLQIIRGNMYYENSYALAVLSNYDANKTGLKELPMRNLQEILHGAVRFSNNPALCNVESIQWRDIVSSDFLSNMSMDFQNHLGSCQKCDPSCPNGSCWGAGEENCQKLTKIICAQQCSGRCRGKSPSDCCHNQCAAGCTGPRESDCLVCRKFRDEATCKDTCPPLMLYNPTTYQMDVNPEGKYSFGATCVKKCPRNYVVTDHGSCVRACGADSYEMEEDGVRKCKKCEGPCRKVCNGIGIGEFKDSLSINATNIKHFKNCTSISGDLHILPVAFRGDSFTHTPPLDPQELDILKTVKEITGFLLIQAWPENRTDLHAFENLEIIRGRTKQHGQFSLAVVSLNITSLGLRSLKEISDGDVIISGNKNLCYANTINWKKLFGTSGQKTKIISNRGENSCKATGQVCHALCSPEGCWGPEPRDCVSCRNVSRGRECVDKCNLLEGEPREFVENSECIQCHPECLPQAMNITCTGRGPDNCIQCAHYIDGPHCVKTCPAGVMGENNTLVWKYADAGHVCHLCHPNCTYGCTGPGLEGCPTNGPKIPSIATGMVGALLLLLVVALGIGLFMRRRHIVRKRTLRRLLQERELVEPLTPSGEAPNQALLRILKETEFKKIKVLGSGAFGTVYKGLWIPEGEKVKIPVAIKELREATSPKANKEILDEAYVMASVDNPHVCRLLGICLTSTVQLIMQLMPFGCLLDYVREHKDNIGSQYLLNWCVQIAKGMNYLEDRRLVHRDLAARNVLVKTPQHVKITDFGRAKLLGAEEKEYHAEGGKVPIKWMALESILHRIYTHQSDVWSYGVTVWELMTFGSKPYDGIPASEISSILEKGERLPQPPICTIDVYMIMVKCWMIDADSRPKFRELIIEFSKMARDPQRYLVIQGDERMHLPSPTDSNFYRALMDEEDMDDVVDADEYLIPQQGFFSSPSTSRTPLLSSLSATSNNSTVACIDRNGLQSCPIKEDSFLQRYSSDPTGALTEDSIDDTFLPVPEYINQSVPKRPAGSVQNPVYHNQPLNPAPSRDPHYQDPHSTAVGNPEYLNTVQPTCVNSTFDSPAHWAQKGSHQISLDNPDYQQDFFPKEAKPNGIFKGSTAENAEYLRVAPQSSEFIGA
T2 sequence (P00533 with tags, fused parts or gaps DUP768-770): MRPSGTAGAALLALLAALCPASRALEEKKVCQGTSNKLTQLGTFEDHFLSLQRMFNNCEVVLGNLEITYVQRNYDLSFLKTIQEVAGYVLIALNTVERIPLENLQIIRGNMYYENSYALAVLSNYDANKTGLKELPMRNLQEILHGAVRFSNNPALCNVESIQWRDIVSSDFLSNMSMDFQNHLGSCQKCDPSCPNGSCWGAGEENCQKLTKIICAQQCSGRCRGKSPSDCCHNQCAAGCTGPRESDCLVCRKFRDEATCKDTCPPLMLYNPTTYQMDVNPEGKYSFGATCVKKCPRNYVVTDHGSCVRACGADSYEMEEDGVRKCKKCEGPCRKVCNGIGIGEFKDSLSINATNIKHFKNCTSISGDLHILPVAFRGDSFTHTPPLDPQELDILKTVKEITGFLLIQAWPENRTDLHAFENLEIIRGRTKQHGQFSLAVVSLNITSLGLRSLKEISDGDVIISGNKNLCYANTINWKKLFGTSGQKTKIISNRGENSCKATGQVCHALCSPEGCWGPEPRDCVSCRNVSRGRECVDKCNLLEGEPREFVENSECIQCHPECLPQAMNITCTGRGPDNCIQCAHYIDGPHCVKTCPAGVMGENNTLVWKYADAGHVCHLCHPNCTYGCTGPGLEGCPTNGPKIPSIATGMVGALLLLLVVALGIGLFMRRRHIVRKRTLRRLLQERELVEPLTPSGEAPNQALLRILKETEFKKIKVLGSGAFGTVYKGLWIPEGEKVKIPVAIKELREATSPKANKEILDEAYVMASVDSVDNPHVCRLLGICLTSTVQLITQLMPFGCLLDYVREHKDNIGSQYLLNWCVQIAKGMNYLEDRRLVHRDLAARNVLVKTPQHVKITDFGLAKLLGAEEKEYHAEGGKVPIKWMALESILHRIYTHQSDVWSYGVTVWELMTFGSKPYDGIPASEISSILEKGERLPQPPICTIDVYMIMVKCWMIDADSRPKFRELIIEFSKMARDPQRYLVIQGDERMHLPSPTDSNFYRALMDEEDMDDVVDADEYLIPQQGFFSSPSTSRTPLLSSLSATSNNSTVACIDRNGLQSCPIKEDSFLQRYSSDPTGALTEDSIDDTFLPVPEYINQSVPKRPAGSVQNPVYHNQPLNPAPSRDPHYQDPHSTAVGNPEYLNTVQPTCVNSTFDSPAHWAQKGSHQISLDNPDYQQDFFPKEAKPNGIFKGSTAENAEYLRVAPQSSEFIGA

pEC50 [1] | pEC50 [2] | pEC50 [3] | pEC50 [4] | pEC50 [5] | pEC50 [6] | Structure (SMILES)
6.00 to 6.70 | 6.00 to 6.70 | ≥ 6.70 | ≥ 6.70 | ≥ 6.70 | ≥ 6.70 | C=CS(=O)(=O)N1CCC(Oc2c(OC)cc3ncnc4c3c2NC(=O)N4c2ccc(Cl)c(Cl)c2)CC1 [Compound 226, 3-(3,4-dichlorophenyl)-8-methoxy-9-((1-(vinylsulfonyl)piperidin-4-yl)oxy)-1H-pyrimido[4,5,6-de]quinazolin-2(3H)-one]
6.00 to 6.70 | 6.00 to 6.70 | ≥ 6.70 | 6.00 to 6.70 | ≥ 6.70 | ≥ 6.70 | C#CC(=O)N1CCC(Oc2c(OC)cc3ncnc4c3c2NC(=O)N4c2ccc(Cl)c(Cl)c2)CC1 [Compound 227, 3-(3,4-dichlorophenyl)-8-methoxy-9-((1-propioloylpiperidin-4-yl)oxy)-1H-pyrimido[4,5,6-de]quinazolin-2(3H)-one]
6.00 to 6.70 | < 6.00 | ≥ 6.70 | < 6.00 | < 6.00 | ≥ 6.70 | C=CC(=O)NC1COc2c(-c3cnc4ccccc4c3)c3c(N)ncnc3n2C1 (stereo not drawn) [Compound 228, N-(4-amino-5-(quinolin-3-yl)-8,9-dihydro-7H-pyrimido[5′,4′:4,5]pyrrolo[2,1-b][1,3]oxazin-8-yl)acrylamide]
